Test results as given in patent publication US6896895B2, “Carotenoid esters, carotenoid-enriched feeds, and methods of pigmenting foods and foodstuffs” (DSM IP Assets B.V., priority 2000, dated 2005).
Marks after values point to notes of the source that are not given here.

Experiments:
[1] = test system: skin and shanks of broilers; assay: Reflectance colorimetry and visual classification of skin and shanks of broilers; format: in vivo, broiler chickens (Ross 308, Ross 508); set-up: key to Shanks Visual Classification / Skin Visual Classification: −; (+); +; ++ = good color; o = orange; conditions: dry carcasses, average over doses, Table 6
Procedure: (§1) Pigmentation efficacy was assessed in egg yolk, in the back skin of the broiler carcass, and in broiler shanks by reflectance colorimetry accompanied by visual scoring (Roche Colour Fan). The deposition of the ethyl-β-apo-8′-carotenoate (control) and the other carotenoid esters was determined in egg yolk and in the broiler back skin. In addition, the carotenoid levels in plasma and abdominal fat were measured.
(§2) The trials were carried out using chickens of the type Ross 308 (trials MC-24/98 and MC-02/99) and Ross 508 (trials MC-11/99, MC-16/99, MC-24/99, and MC-03/00) (Couvir de la Bohardière, F-49290 Saint Laurent de la Plaine). One-day old broiler chickens, separated by sex, were divided by weight into experimental groups of ten animals each and reared in floor pens littered with wood shavings. The chickens were fed a low carotenoid basal grower diet until day 22 (trials MC-24/98, MC-02/99, and MC-11/99) or until day 15 (trials MC-16/99, MC-24/99, and MC-03/00). The low carotenoid basal grower diet contained less than 2 mg total xanthophylls per kg of feed, and its composition is described in Table 2. For the subsequent experimental period of three weeks, the birds received the basal diet supplemented with an appropriate pigment. The feed was given in the form of crumbled pellets during the first week and as pellets thereafter. The animals had unrestricted access to feed and water. A given treatment involved one group of male and one group of female chickens. Each group of chickens was weighed at day 22 (trials MC-24/98, MC-02/99, and MC-11/99) or day 15 (trials MC-16/99, MC-24/99, and MC-03/00) and on day 43. On day 42, five chickens per group were selected at random, labelled, and blood samples were taken from the jugular vein. At the end of the experiment (day 44) the animals were slaughtered in a commercial slaughterhouse (Freyburger, Dannemarie, France). The following day, the color of the skin (hind back of carcasses) and the shanks of the labelled chicken were measured by reflectance colorimetry (Minolta CR 200 apparatus, CIE-Lab system). Samples of the dorsal skin and abdominal fat were obtained, pooled for each experimental group, and the carotenoid concentration was determined. The concentration of carotenoids in feed, plasma, skin, and abdominal fat was determined by standard procedures as described after Tables 1 and 2.
The color of broiler skin and shanks was measured using a tristimulus Minolta CR-300 Chromameter with diffuse D65-illumination and a 0° viewing angle. The color of the skin was read at three different points on the back of the dry broiler carcasses and average values of the triple measurements were recorded. The color of shanks was measured using single measurements at the ball between the toes.
(§3) The color data were expressed as CIE L*a*b*-values including h*(hue) and C* (chroma). The values given in the tables per treatment and trial represent averages of color measurements of four egg yolk pools, ten broiler back skins, or ten broiler shanks (5 males and 5 females).

egg yolk = assay: Egg yolk colour: reflectance colorimetry and Roche Yolk Colour Fan; format: in vivo, laying hens (ISA Brown); conditions: egg yolk, laying hens
Procedure: as §1
The trials were carried out following the standard experimental design used for egg yolk pigmentation trials at the Roche Research Center for Animal Nutrition (CRNA, F-68305 Village-Neuf, France). Each year in February the pigmentation trials are started with a new flock of layers. At the beginning of the trials the age of the laying hens (192 birds, type ‘ISA Brown’) were as follows:
(§4) Preceding the trials the hens were fed a low carotenoid basal diet (produced at the CRNA) without carotenoid supplementation for at least 28 days. During the trials, the control group received the low carotenoid basal diet containing less than 2 mg total xanthophylls per kg of feed. The other animals were fed this diet supplemented with the appropriate pigments for three weeks. The diet was given to the animals ad libitum in mash form. The hens had free access to tap water. Beside the unsupplemented control treatment, treatments were carried out involving the provision of supplemented feed, the results of these treatments being presented in Tables 7-9.
Egg yolk color was assessed as described by Steinberg, et al. (Arch. Geflügelk 64 (4), 180-187 (2000)). The yolks were manually separated from the whites of the eggs. The isolated yolks of three to six eggs were combined, weighed, and stirred with a glass rod until the color appeared homogeneous. The color hue was visually scored using the Roche Yolk Colour Fan (RYCF, version 1993). An aliquot of the pooled egg yolks was transferred into a glass cuvette yielding an approximately 2 cm thick layer. The color was then measured by means of a Dr. Lange Xeno Color LS 100 spectro-colorimeter with diffuse D65-illumination and a 8° viewing angle.
as §3

[2] = Carotenoid ester content and deposition rate in egg yolk of laying hens (HPLC); format: in vivo, laying hens (ISA Brown); conditions: egg yolk; for Deposition Rate % of Controls: Table 10
Procedure: as §1
Each year in February the pigmentation trials are started with a new flock of layers.
as §4, with “water.” for “water. Beside the unsupplemented control treatment, treatments were carried out involving the provision of supplemented feed, the results of these treatments being presented in Tables 7-9.”
Peaks were related to all-E- and Z-isomers of the various carotenoid esters by chromatography of heat-isomerized solutions of the respective reference substances in n-hexane. The HPLC system was calibrated with the all-E-isomer of ethyl β-apo-8′-carotenoate. The response factor of the various derivatives was deduced from that of ethyl β-apo-8′-carotenoate taking into account the respective molecular weight. The content of the Z-isomer fractions was calculated based on the response of the all-E-isomer and using a correction factor of 1.4 to account for the lower specific absorbance of the Z-isomers.
(§5) The HPLC-system for in-feed analysis was also used to quantify the carotenoid esters in egg yolk, broiler tissues, and broiler plasma, but the extraction procedure was different for the various matrices.
For the extraction of egg yolk, 10 g of pooled and homogenised yolk were mixed with 10 ml of demineralized water using a dispersion instrument (Polytron). 1.0 g of diluted egg yolk was introduced into a 10 ml test tube with 1.0 ml of demineralized water and 2.0 ml of ethanol, and the contents were mixed on a Vortex shaker. After addition of 4.0 ml of n-hexane, the mixture was further treated as described for plasma.

[3] = Carotenoid ester content in plasma, back skin and abdominal fat of broilers (HPLC); format: in vivo, broiler chickens (Ross 308, Ross 508); conditions: average over doses, Table 4
Procedure: as §1, §2
The content of the various carotenoid esters in feed was determined according to the method of Schierle, et al. (J. Schierle , N. Faccin, V. Riegert, Analytical Methods for Vitamins and Carotenoids in Feed, Revised supplement: Determination of Stabilized Apocarotenoic Ester and Canthaxanthin in Premixes and Feeds, Roche publication no. 50771 (1995), publicly available from. F. Hoffmann-La Roche Ltd., CH-4070 Basel). This method was modified in that the mobile phase of the normal-phase HPLC contained 0.5% instead of 7% acetone in n-hexane, improving the separation of the E/Z-isomers of the carotenoid esters. Peaks were related to all-E- and Z-isomers of the various carotenoid esters by chromatography of heat-isomerized solutions of the respective reference substances in n-hexane. The HPLC system was calibrated with the all-E-isomer of ethyl β-apo-8′-carotenoate. The response factor of the various derivatives was deduced from that of ethyl β-apo-8′-carotenoate taking into account the respective molecular weight. The content of the Z-isomer fractions was calculated based on the response of the all-E-isomer and using a correction factor of 1.4 to account for the lower specific absorbance of the Z-isomers.
as §5
For plasma extraction, 1.0 g of the well-mixed plasma sample was introduced into a 10 ml test tube with 1.0 ml of demineralized water and 4.0 ml of ethanol, and the contents mixed on a Vortex shaker. […]

[4] = trial H-25/99, 5.0 mg/kg feed, Table 8
[5] = trial H-25/99, 5.0 mg/kg feed, Table 10
[6] = trial H-05/00, 5.0 mg/kg feed, Table 8
[7] = trial H-05/00, 5.0 mg/kg feed, Table 10
[8] = trial H-12/99, 2, 4, 8 mg/kg feed, Table 8
[9] = trial H-12/99, 2, 4, 8 mg/kg feed, Table 10
[10] = trials H-18, 22/99, 1, 2, 4, 5, 8 mg/kg feed, Table 8
[11] = trials H-18, 22/99, 1, 2, 4, 5, 8 mg/kg feed, Table 10
[12] = control, n = 16, 1.0-8.0 mg/kg feed

| Analytical Content as Equivalent of Ethyl β-apo-8′-carotenoate in % of control Fat [3] | Analytical Content as Equivalent of Ethyl β-apo-8′-carotenoate in % of control Plasma [3] | Analytical Content as Equivalent of Ethyl β-apo-8′-carotenoate in % of control Skin [3] | Structure (SMILES) | Shanks Chroma C*ab % of Controls [1] | Shanks Color Hue h*ab % of Controls [1] | Shanks Visual Classification [1] | Skin Chroma C*ab % of Controls [1] | Skin Color Hue h*ab % of Controls [1] | Skin Visual Classification [1] | also measured |
| --- | --- | --- | --- | --- | --- | --- | --- | --- | --- | --- |
| 49% | 66% | 85% | CC(C=CC=C(C)C=CC1=C(C)CCCC1(C)C)=CC=CC=C(C)C=CC=C(C)C(=O)OC(C)CC(C)C (stereo not drawn) [(12), 4-methyl-2-pentyl beta-apo-8′-carotenoate] | 95% | 101% | + | 91% | 99% | + | Color Fan Value % of Controls (egg yolk; [4]): 101%; Chroma C*ab % of Controls (egg yolk; [5]): 74%; Color Fan Value % of Controls (egg yolk; [5]): 101%; Color Hue h*ab % of Controls (egg yolk; [5]): 109%; Deposition Rate Target Values % of Controls [2, 4]: 89%; Ethyl β-apo-8′-carotenoate Equivalents % of Controls [2, 4]: 79%; Deposition Rate % of Controls ([2]; trial H-25/99, 5.0 mg/kg feed): 89% |
| 50% | 76% | 77% | CC(C=CC=C(C)C=CC1=C(C)CCCC1(C)C)=CC=CC=C(C)C=CC=C(C)C(=O)OC1CCCC1 [(15), cyclopentyl beta-apo-8′-carotenoate] | 99% | 100% | ++ | 106% | 99% | ++ | Color Fan Value % of Controls (egg yolk; [6]): 116%; Chroma C*ab % of Controls (egg yolk; [7]): 107%; Color Fan Value % of Controls (egg yolk; [7]): 116%; Color Hue h*ab % of Controls (egg yolk; [7]): 101%; Deposition Rate Target Values % of Controls [2, 6]: 95%; Ethyl β-apo-8′-carotenoate Equivalents % of Controls [2, 6]: 95%; Deposition Rate % of Controls ([2]; trial H-05/00, 5.0 mg/kg feed): 95% |
| 39% | 68% | 45% | CCCOC(=O)C(C)=CC=CC(C)=CC=CC=C(C)C=CC=C(C)C=CC1=C(C)CCCC1(C)C [(2), n-propyl beta-apo-8′-carotenoate] | 108% | 99% | (+) | 93% | 97% | (+) | Color Fan Value % of Controls (egg yolk; [8]): 110%; Chroma C*ab % of Controls (egg yolk; [9]): 95%; Color Fan Value % of Controls (egg yolk; [9]): 110%; Color Hue h*ab % of Controls (egg yolk; [9]): 101%; Deposition Rate Target Values % of Controls [2, 8]: 77%; Ethyl β-apo-8′-carotenoate Equivalents % of Controls [2, 8]: 73%; Deposition Rate % of Controls ([2]; trial H-12/99, 2, 4, 8 mg/kg feed): 77% |
| 53% | 94% | 74% | CCC(C)OC(=O)C(C)=CC=CC(C)=CC=CC=C(C)C=CC=C(C)C=CC1=C(C)CCCC1(C)C (stereo not drawn) [(5), sec. butyl beta-apo-8′-carotenoate] | 100% | 101% | + | 100% | 101% | + | Color Fan Value % of Controls (egg yolk; [10]): 88%; Chroma C*ab % of Controls (egg yolk; [11]): 103%; Color Hue h*ab % of Controls (egg yolk; [11]): 102%; Color Fan Value % of Controls (egg yolk; trials H-18, 22/99, 1, 2, 4, 5, 8 mg/kg feed, comparison within same trials, Table 10): 93^1) %; Deposition Rate Target Values % of Controls [2, 10]: 97%; Ethyl β-apo-8′-carotenoate Equivalents % of Controls [2, 10]: 90%; Deposition Rate % of Controls ([2]; trials H-18, 22/99, 1, 2, 4, 5, 8 mg/kg feed, comparison within same trials): 84^1) % |
| – | – | – | CCOC(=O)/C(C)=C/C=C/C(C)=C/C=C/C=C(C)/C=C/C=C(C)/C=C/C1=C(C)CCCC1(C)C [Ethyl β-apo-8′-carotenoate, ethyl beta-apo-8′-carotenoate, reference compound] | – | – | – | – | – | – | Color Fan Value % of Controls (egg yolk; [12]): 100%; Deposition Rate Target Values % of Controls [2, 12]: 100%; Ethyl β-apo-8′-carotenoate Equivalents % of Controls [2, 12]: 100% |
